# Measurements reported in publication PMC6149861, “Identification, In Vitro Testing and Molecular Docking Studies of Microginins’ Mechanism of Angiotensin-Converting Enzyme Inhibition” (Molecules : A Journal of Synthetic Chemistry and Natural …, 2017).
# Like-named read-outs stand apart in the source and are kept apart here.
# Test system: angiotensin-converting enzyme (ACE; EC. 3.4.15.1)
# Format: biochemical
# Conditions: for ACE inhibitory rate: HHL substrate, pH 8.3, 37 °C, HPLC-DAD 226 nm, mean ± SEM of three repeats
# Procedure: The ACE inhibiting capability was evaluated according to the method described by Wang et al. ([14], which employs the hippuryl-histidilleucina tripeptide (Hip-His-Leu or HHL) as the substrate and evaluates the formation of hippuric acid (HA) by liquid chromatography (HPLC-DAD). Briefly, the commercial enzyme ACE and the substrate HHL (Sigma-Aldrich®) were dissolved in borate buffer (NaOH and boric acid) 100 mmol·L^−1, pH 8.3, supplemented with 300 mmol·L^−1 NaCl; their concentrations were 0.2 U/mL and 5 mmol·L^−1, respectively. Meanwhile, HA and captopril (standard ACE inhibitor) were dissolved in distilled water. The enzyme was pre-incubated in the presence or absence of inhibitor (isolated microginins or captopril) for […] at 37 °C, and the reaction was initiated by addition of substrate. After 30 min, the reaction was stopped by adding 250 μL of hydrochloric acid, and the sample was directly injected into the chromatographic system. […] After 5 min, the substrate was added to start the reaction.
# The inhibitory rate was calculated, according to Wang et al., by I% = (A − B)/A × 100%; where A is the peak area of HA without adding ACE inhibitors; and B is the peak area of HA with the addition of ACE inhibitors. All data presented are the average of three repeats; the data are presented as means ± SEM.
ACE inhibitory rate (captopril 0.8 µM) [%],Compound,ACE inhibition (in words) (IC50-based comparison with other microginins),ACE inhibitory rate (microginin 800 µg·mL^−1) [%]
,MeAhda-L-Val-L-Leu-L-HTyr-L-Tyr [MG 770],"efficiently inhibits ACE, with activity comparable to that of other previously described microginins",92.15 ± 2.76
88.25 ± 1.19,"C[C@H](CS)C(=O)N1CCC[C@H]1C(=O)O [captopril, reference compound]",,
